Data taken from EP1832576A1, “4-Biarylyl-1-phenolyzetidin-2-ones” (Microbia Inc., priority 2003, dated 2005).

Test system: cholesterol absorption from the intestine
Assay: In Vivo Assay of Hypolipidemic Agents using the Rat Cholesterol Absorption Model
Set-up: species or system Female Sprague-Dawley rats
Conditions: po; for inhibition at 1 mg/kg: 3H levels in serum three hours after 3H-cholesterol, versus vehicle only control
Procedure, shortened: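 Fasted female Sprague-Dawley rats (150–250 g, 4–6/group) received compound orally in olive oil or vehicle. Thirty minutes later they were given 3–5 µCi ^3H-cholesterol orally in olive oil, and serum ^3H was counted at 3 h. Percent inhibition versus vehicle control is at a fixed dose; ED50 is the dose giving half-maximal effect on serum ^3H.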

## O=C(O)c1ccc(-c2ccc([C@@H]3[C@@H](CC[C@H](O)c4ccc(F)cc4)C(=O)N3c3ccc(F)cc3)cc2)cc1O [Example 110, 4'-{(2S,3R)-1-(4-fluorophenyl)-3-[(3S)-3-(4-fluorophenyl)-3-hydroxypropyl]-4-oxoazetidin-2-yl}-3-hydroxybiphenyl-4-carboxylic acid]
Table 1, perorally
  inhibition at 1 mg/kg: 72%

## CSc1cccc(-c2ccc([C@@H]3[C@@H](CC[C@H](O)c4ccc(F)cc4)C(=O)N3c3ccc(F)cc3)cc2)c1 [Example 82, (3R,4S)-1-(4-fluorophenyl)-3-[(3S)-3-(4-fluorophenyl)-3-hydroxypropyl]-4-[3'-(methylthio)biphenyl-4-yl]azetidin-2-one]
Table 1, perorally
  inhibition at 1 mg/kg: 28%

## Cc1cc(-c2ccc([C@@H]3[C@@H](CC[C@H](O)c4ccc(F)cc4)C(=O)N3c3ccc(F)cc3)cc2)ccc1F [Example 94, (3R,4S)-4-(4'-fluoro-3'-methylbiphenyl-4-yl)-1-(4-fluorophenyl)-3-[(3S)-3-(4-fluorophenyl)-3-hydroxypropyl]azetidin-2-one]
Table 1, perorally
  inhibition at 1 mg/kg: 30%

## O=C(O)[C@@H]1O[C@H](Oc2cccc(-c3ccc([C@@H]4[C@@H](CC[C@H](O)c5ccc(F)cc5)C(=O)N4c4ccc(F)cc4)cc3)c2)[C@@H](O)[C@H](O)[C@H]1O [Example 20, 4'-{(2S,3R)-1-(4-fluorophenyl)-3-[(3S)-3-(4-fluorophenyl)-3-hydroxypropyl]-4-oxoazetidin-2-yl}biphenyl-3-yl β-L-glucopyranosiduronic acid]
Table 1, perorally
  inhibition at 1 mg/kg: 59%

## CCCOc1cccc(-c2ccc([C@@H]3[C@@H](CC[C@H](O)c4ccc(F)cc4)C(=O)N3c3ccc(F)cc3)cc2)c1 [Example 103, (3R,4S)-1-(4-fluorophenyl)-3-[(3S)-3-(4-fluorophenyl)-3-hydroxypropyl]-4-(3'-propoxybiphenyl-4-yl)azetidin-2-one]
Table 1, perorally
  inhibition at 1 mg/kg: 21%

## CCOc1ccc(-c2ccc([C@@H]3[C@@H](CC[C@H](O)c4ccc(F)cc4)C(=O)N3c3ccc(F)cc3)cc2)cc1 [Example 101, (3R,4S)-4-(4'-ethoxybiphenyl-4-yl)-1-(4-fluorophenyl)-3-[(3S)-3-(4-fluorophenyl)-3-hydroxypropyl]azetidin-2-one]
Table 1, perorally
  inhibition at 1 mg/kg: 41%

## O=C1[C@H](CC[C@H](O)c2ccc(F)cc2)[C@@H](c2ccc(-c3cccc(P(=O)(O)O)c3)cc2O)N1c1ccccc1 [Example 61, (4'-{(2S,3R)-3-[(3S)-3-(4-Fluorophenyl)-3-hydroxypropyl]-4-oxo-1-phenylazetidin-2-yl}-3'-hydroxybiphenyl-3-yl)phosphonic acid]
Table 2, footnote mark 3 (defined only under Table 1: 5 mg/kg), perorally
  inhibition at 5 mg/kg: 58%

## O=C1[C@H](CC[C@H](O)c2ccc(F)cc2)[C@@H](c2ccc(-c3cccc([C@@H]4O[C@H](CO)[C@@H](O)[C@H](O)[C@H]4O)c3)cc2O)N1c1ccccc1 [Example 65, (1S)-1,5-anhydro-1-(4'-{(2S,3R)-3-[(3S)-3-(4-fluorophenyl)-3-hydroxypropyl]-4-oxo-1-phenylazetidin-2-yl}-3'-hydroxybiphenyl-3-yl)-D-glucitol]
Table 2, footnote 5, perorally, 0.1 mg/kg
  inhibition at 0.1 mg/kg: 60%

## O=Cc1cccc(-c2ccc([C@@H]3[C@@H](CC[C@H](O)c4ccc(F)cc4)C(=O)N3c3ccc(F)cc3)cc2)c1 [Example 13, 4'-{(2S,3R)-1-(4-fluorophenyl)-3-[(3S)-3-(4-fluorophenyl)-3-hydroxypropyl]-4-oxoazetidin-2-yl}biphenyl-3-carbaldehyde]
Table 1, perorally
  inhibition at 1 mg/kg: 70%

## O=C1[C@H](CC[C@H](O)c2ccc(F)cc2)[C@@H](c2ccc(-c3cccc(O)c3)s2)N1c1ccccc1 [Example 50, (3R,4S)-3-[(3S)-3-(4-Fluorophenyl)-3-hydroxypropyl]-4-[5-(3-hydroxyphenyl)-2-thienyl]-1-phenylazetidin-2-one]
Table 2, perorally
  inhibition at 1 mg/kg: 27%

## O=C1[C@H](CC[C@H](O)c2ccc(F)cc2)[C@@H](c2ccc(-c3ccc(S(=O)(=O)O)cc3)cc2O)N1c1ccccc1 [Example 128, Sodium 4'-{(2S,3R)-3-[(3S)-3-(4-fluorophenyl)-3-hydroxypropyl]-4-oxo-1-phenylazetidin-2-yl}-3'-hydroxybiphenyl-4-sulfonate]
Table 2, perorally
  inhibition at 1 mg/kg: 60%

## O=C1[C@H](CC[C@H](O)c2ccc(F)cc2)[C@@H](c2ccc(-c3ccc(O)cc3O)cc2)N1c1ccc(F)cc1 [Example 108, (3R,4S)-4-(2',4'-dihydroxybiphenyl-4-yl)-1-(4-fluorophenyl)-3-[(3S)-3-(4-fluorophenyl)-3-hydroxypropyl]azetidin-2-one]
Table 1, perorally
  inhibition at 1 mg/kg: 69%

## O=C1[C@H](CC[C@H](O)c2ccc(F)cc2)[C@@H](c2ccc(-c3ccc([C@H]4O[C@@H](CO)[C@H](O)[C@@H](O)[C@@H]4O)cc3)cc2)N1c1ccc(F)cc1 [Example 116, (1R)-1,5-anhydro-1-(4'-{(2S,3R)-1-(4-fluorophenyl)-3-[(3S)-3-(4-fluorophenyl)-3-hydroxypropyl]-4-oxoazetidin-2-yl}biphenyl-4-yl)-L-glucitol]
Table 1, perorally
  inhibition at 1 mg/kg: 81%

## O=C1[C@H](CCC(O)c2ccc(F)cc2)[C@@H](c2ccc(-c3cccc(S(=O)(=O)O)c3)cc2O)N1c1ccccc1 (stereo partly drawn) [Example 53, Sodium 4'-{(2S,3R)-3-[(3S/R)-3-(4-fluorophenyl)-3-hydroxypropyl]-4-oxo-1-phenylazetidin-2-yl}-3'-hydroxybiphenyl-3-sulfonate]
Table 2, perorally
  inhibition at 1 mg/kg: 78%

## COc1cccc(-c2ccc([C@@H]3[C@@H](CC[C@H](O)c4ccc(F)cc4)C(=O)N3c3ccc(F)cc3)cc2)c1OC [Example 11, (3R,4S)-4-(2',3'-dimethoxybiphenyl-4-yl)-1-(4-fluorophenyl)-3-[(3S)-3-(4-fluorophenyl)-3-hydroxypropyl]azetidin-2-one]
Table 1, perorally
  inhibition at 1 mg/kg: 28%

## O=C1[C@H](CC[C@H](O)c2ccc(F)cc2)[C@@H](c2ccc(-c3cccc(OC[C@H]4OC(O)[C@H](O)[C@@H](O)[C@@H]4O)c3)cc2)N1c1ccc(F)cc1 (stereo partly drawn) [Example 76, 6-O-(4'-{(2S,3R)-1-(4-Fluorophenyl)-3-[(3S)-3-(4-fluorophenyl)-3-hydroxypropyl]-4-oxoazetidin-2-yl}biphenyl-3-yl)-D-glucopyranose]
Table 1, perorally
  inhibition at 1 mg/kg: 56%

## O=C(O)c1cc(-c2ccc([C@@H]3[C@@H](CC[C@H](O)c4ccc(F)cc4)C(=O)N3c3ccc(F)cc3)cc2)ccc1O [Example 106, 4'-{(2S,3R)-1-(4-fluorophenyl)-3-[(3S)-3-(4-fluorophenyl)-3-hydroxypropyl]-4-oxoazetidin-2-yl}-4-hydroxybiphenyl-3-carboxylic acid]
Table 1, perorally
  inhibition at 1 mg/kg: 66%

## O=C1[C@H](CC[C@H](O)c2ccc(F)cc2)[C@@H](c2ccc(-c3cccc(O)c3)cc2)N1c1ccc(-c2ccccc2)cc1 [Example 124, (3R,4S)-1-biphenyl-4-yl-3-[(3S)-3-(4-fluorophenyl)-3-hydroxypropyl]-4-(3'-hydroxybiphenyl-4-yl)azetidin-2-one]
Table 2, perorally
  inhibition at 1 mg/kg: 48%

## COc1cc(-c2ccc([C@@H]3[C@@H](CC[C@H](O)c4ccc(F)cc4)C(=O)N3c3ccc(F)cc3)cc2)ccc1O [Example 102, (3R,4S)-1-(4-fluorophenyl)-3-[(3S)-3-(4-fluorophenyl)-3-hydroxypropyl]-4-(4'-hydroxy-3'-methoxybiphenyl-4-yl)azetidin-2-one]
Table 1, perorally
  inhibition at 1 mg/kg: 56%

## O=C1C(CCC(O)c2ccc(F)cc2)C(c2ccc(-c3ccc(CO)cc3)cc2)N1c1ccc(F)cc1 (centres unmarked) [Example 18]
Table 1, perorally
  inhibition at 1 mg/kg: 48%
